Source: PubChem BioAssay AID743505 (Broad Institute, 2014)
The source made the active and inactive calls.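 How the source made its calls: active means dose curve with falling signal and an AC50 no higher than twice the top valid tested dose; inconclusive means flat curve with 30 to 70% inhibition, or a poor fit; inactive means rising signal, flat weak curve, or AC50 over that limit.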

Molecular target: Melanocortin receptor 4 (Homo sapiens) (UniProt P32245)
Test: MC4R antagonists in CRE-luciferase reporter cells, dose response, counter-screen for LGR2 antagonist project, cell-based, HEK293, luminescence, dry powder (AID 743505)
Conditions: antagonist mode

Sequence of Melanocortin receptor 4 (Homo sapiens) (P32245 whole entry, looked up): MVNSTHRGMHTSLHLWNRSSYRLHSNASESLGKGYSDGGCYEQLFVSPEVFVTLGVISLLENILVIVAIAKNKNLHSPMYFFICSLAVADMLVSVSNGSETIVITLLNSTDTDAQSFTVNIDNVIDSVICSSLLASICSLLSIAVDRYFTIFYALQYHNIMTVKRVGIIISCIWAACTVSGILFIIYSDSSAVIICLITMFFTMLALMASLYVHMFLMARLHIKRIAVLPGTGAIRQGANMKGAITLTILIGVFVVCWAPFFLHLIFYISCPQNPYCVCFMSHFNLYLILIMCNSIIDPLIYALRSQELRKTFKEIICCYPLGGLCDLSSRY

Structure (SMILES)	AC50
C[C@@H]1CCCCO[C@@H](CN(C)C(=O)Nc2cccc3ccccc23)[C@H](C)CN([C@@H](C)CO)C(=O)c2cc(NC(=O)C3CCCCC3)ccc2O1	> 70 µM (inactive)
C[C@@H]1CCCCO[C@H](CN(C)C(=O)Nc2cccc3ccccc23)[C@@H](C)CN([C@H](C)CO)C(=O)c2cc(NC(=O)C3CCCCC3)ccc2O1	> 70 µM (inactive)
C[C@H]1CCCCO[C@@H](CN(C)S(=O)(=O)c2ccc(Cl)cc2)[C@@H](C)CN([C@@H](C)CO)C(=O)c2cc(NC(=O)NC3CCCCC3)ccc2O1	> 70 µM (inactive)
C[C@@H]1CCCCO[C@@H](CN(C)C(=O)Nc2cccc3ccccc23)[C@H](C)CN([C@H](C)CO)C(=O)c2cc(NC(=O)C3CCCCC3)ccc2O1	7.91 µM

Same assay, conditions: antagonist mode, at 35 µM (top of the series)

Structure (SMILES)	activity change, negative = inhibition
C[C@H](CO)N1C[C@H](C)[C@H](CN(C)C(=O)Nc2ccc(F)cc2)OCCCC[C@H](C)Oc2ccc(NC(=O)Nc3ccc(F)cc3)cc2C1=O	inactive
C[C@H](CO)N1C[C@H](C)[C@H](CN(C)C(=O)Nc2ccc(F)cc2)OCCCC[C@H](C)Oc2ccc(NC(=O)NC3CCCCC3)cc2C1=O	inactive
C[C@H](CO)N1C[C@H](C)[C@H](CN(C)C(=O)Nc2ccc(C(F)(F)F)cc2)OCCCC[C@H](C)Oc2ccc(NC(=O)NC3CCCCC3)cc2C1=O	inactive
C[C@@H]1CN([C@@H](C)CO)C(=O)c2cc(NC(=O)C3CCCCC3)ccc2O[C@@H](C)CCCCO[C@H]1CN(C)C(=O)Nc1cccc2ccccc12	inactive
C[C@H](CO)N1C[C@H](C)[C@H](CN(C)C(=O)Nc2ccccc2F)OCCCC[C@H](C)Oc2ccc(NC(=O)C3CCCCC3)cc2C1=O	inactive
C[C@@H]1CCCCO[C@H](CN(C)C(=O)Nc2cccc3ccccc23)[C@H](C)CN([C@H](C)CO)C(=O)c2cc(NC(=O)C3CCCCC3)ccc2O1	inactive
COc1ccc(S(=O)(=O)N(C)C[C@@H]2OCCCC[C@H](C)Oc3ccc(NS(=O)(=O)c4ccc(F)cc4)cc3C(=O)N([C@@H](C)CO)C[C@@H]2C)cc1	inactive
CC(=O)Nc1ccc2c(c1)C(=O)N([C@H](C)CO)C[C@H](C)[C@H](CN(C)C(=O)Nc1ccc(F)cc1)OCCCC[C@H](C)O2	inactive
CC(C)(C)c1ccc(-c2nc(-c3ccncc3)no2)cc1	inactive
C[C@H](CO)N1C[C@H](C)[C@H](CN(C)C(=O)Nc2ccc(C(F)(F)F)cc2)OCCCC[C@H](C)Oc2ccc(NC(=O)CCC(F)(F)F)cc2C1=O	inactive
C[C@H](CO)N1C[C@H](C)[C@H](CN(C)C(=O)Nc2ccc(F)cc2)OCCCC[C@H](C)Oc2ccc(NC(=O)C3CCOCC3)cc2C1=O	inactive
C[C@H]1CCCCO[C@H](CN(C)C(=O)Nc2cccc3ccccc23)[C@@H](C)CN([C@@H](C)CO)C(=O)c2cc(NC(=O)C3CCCCC3)ccc2O1	inactive
C[C@H](CO)N1C[C@H](C)[C@H](CN(C)C(=O)Nc2ccc(Cl)cc2)OCCCC[C@H](C)Oc2ccc(NC(=O)C3CCCCC3)cc2C1=O	inactive
C[C@H](CO)N1C[C@H](C)[C@H](CN(C)C(=O)Nc2cccc3ccccc23)OCCCC[C@H](C)Oc2ccc(NC(=O)NC3CCCCC3)cc2C1=O	inactive
C[C@H](CO)N1C[C@H](C)[C@H](CN(C)C(=O)Nc2ccccc2)OCCCC[C@H](C)Oc2ccc(NC(=O)Nc3ccc4c(c3)OCO4)cc2C1=O	inactive
C[C@@H]1CCCCO[C@H](CN(C)C(=O)Nc2cccc3ccccc23)[C@@H](C)CN([C@@H](C)CO)C(=O)c2cc(NC(=O)C3CCCCC3)ccc2O1	inactive
C[C@H](CO)N1C[C@H](C)[C@H](CN(C)C(=O)Nc2ccc(F)cc2)OCCCC[C@H](C)Oc2ccc(NC(=O)Nc3ccccc3)cc2C1=O	inactive
C[C@H](CO)N1C[C@H](C)[C@H](CN(C)C(=O)Nc2ccc3c(c2)OCO3)OCCCC[C@H](C)Oc2ccc(NC(=O)C3CCCCC3)cc2C1=O	inactive
C[C@H](CO)N1C[C@H](C)[C@H](CN(C)C(=O)Nc2cccc3ccccc23)OCCCC[C@H](C)Oc2ccc(NC(=O)c3ccccc3)cc2C1=O	inactive
C[C@H](CO)N1C[C@H](C)[C@H](CN(C)C(=O)Nc2cccc3ccccc23)OCCCC[C@H](C)Oc2ccc(NC(=O)CCC(F)(F)F)cc2C1=O	inactive
C[C@H](CO)N1C[C@H](C)[C@H](CN(C)C(=O)Nc2ccc(F)cc2)OCCCC[C@H](C)Oc2ccc(NC(=O)C3CC3)cc2C1=O	inactive
C[C@H](CO)N1C[C@H](C)[C@H](CN(C)C(=O)Nc2ccccc2)OCCCC[C@H](C)Oc2ccc(NC(=O)CCC(F)(F)F)cc2C1=O	inactive
C[C@H]1CCCCO[C@@H](CN(C)C(=O)Nc2ccc3c(c2)OCO3)[C@@H](C)CN([C@@H](C)CO)C(=O)c2cc(NC(=O)NC3CCCCC3)ccc2O1	inactive
C[C@H](CO)N1C[C@H](C)[C@H](CN(C)C(=O)Nc2ccc3c(c2)OCO3)OCCCC[C@H](C)Oc2ccc(NC(=O)NC3CCCCC3)cc2C1=O	inactive

Structure (SMILES)	activity change, negative = inhibition
C[C@H](CO)N1C[C@H](C)[C@H](CN(C)C(=O)Nc2ccc(F)cc2)OCCCC[C@H](C)Oc2ccc(NC(=O)C3CCCCCC3)cc2C1=O	inactive
C[C@H]1CCCCO[C@@H](CN(C)C(=O)Nc2ccccc2)[C@@H](C)CN([C@@H](C)CO)C(=O)c2cc(NC(=O)NC3CCCCC3)ccc2O1	inactive
C[C@@H]1CCCCO[C@@H](CN(C)C(=O)Nc2cccc3ccccc23)[C@@H](C)CN([C@H](C)CO)C(=O)c2cc(NC(=O)C3CCCCC3)ccc2O1	inactive
C[C@@H]1CCCCO[C@H](CN(C)C(=O)Nc2cccc3ccccc23)[C@H](C)CN([C@@H](C)CO)C(=O)c2cc(NC(=O)C3CCCCC3)ccc2O1	inactive
C[C@H](CO)N1C[C@H](C)[C@H](CN(C)C(=O)Nc2ccc(F)cc2)OCCCC[C@H](C)Oc2ccc(NC(=O)C3CCCCC3)cc2C1=O	inactive
C[C@H](CO)N1C[C@H](C)[C@H](CN(C)C(=O)Nc2cccc3ccccc23)OCCCC[C@H](C)Oc2ccc(NC(=O)C3CCCCC3)cc2C1=O	inactive
C[C@H]1CCCCO[C@@H](CN(C)C(=O)Nc2ccc(C(F)(F)F)cc2)[C@@H](C)CN([C@@H](C)CO)C(=O)c2cc(NC(=O)CCC(F)(F)F)ccc2O1	inactive
Cc1ccc(NC(=O)N(C)C[C@@H]2OCCCC[C@H](C)Oc3ccc(NC(=O)C4CCCCC4)cc3C(=O)N([C@H](C)CO)C[C@@H]2C)cc1	inactive
C[C@H](CO)N1C[C@H](C)[C@H](CN(C)C(=O)Nc2ccccc2)OCCCC[C@H](C)Oc2ccc(NC(=O)C3CCCCC3)cc2C1=O	inactive
C[C@H](CO)N1C[C@H](C)[C@H](CN(C)C(=O)Nc2ccccc2)OCCCC[C@H](C)Oc2ccc(NC(=O)NC3CCCCC3)cc2C1=O	inactive
C[C@@H]1CN([C@H](C)CO)C(=O)c2cc(NC(=O)C3CCCCC3)ccc2O[C@@H](C)CCCCO[C@@H]1CN(C)C(=O)Nc1cccc2ccccc12	inactive
COc1ccc(NC(=O)N(C)C[C@@H]2OCCCC[C@H](C)Oc3ccc(NC(=O)NC4CCCCC4)cc3C(=O)N([C@H](C)CO)C[C@@H]2C)cc1	inactive
COc1ccc(NC(=O)N(C)C[C@@H]2OCCCC[C@H](C)Oc3ccc(NC(=O)C4CCCCC4)cc3C(=O)N([C@H](C)CO)C[C@@H]2C)cc1	inactive
C[C@H](CO)N1C[C@H](C)[C@H](CN(C)C(=O)Nc2ccc(F)cc2)OCCCC[C@H](C)Oc2ccc(NC(=O)C3CCCC3)cc2C1=O	inactive
C[C@H]1CCCCO[C@@H](CN(C)C(=O)Nc2ccc(F)cc2)[C@@H](C)CN([C@@H](C)CO)C(=O)c2cc(NC(=O)C3CCCCC3)ccc2O1	inactive
C[C@H](CO)N1C[C@H](C)[C@H](CN(C)C(=O)Nc2ccccc2)OCCCC[C@H](C)Oc2ccc(NC(=O)Nc3ccccc3)cc2C1=O	inactive
C[C@H](CO)N1C[C@H](C)[C@H](CN(C)C(=O)Nc2ccc(F)cc2)OCCCC[C@H](C)Oc2ccc(NC(=O)C3CCC3)cc2C1=O	inactive
C[C@H](CO)N1C[C@H](C)[C@H](CN(C)C(=O)Nc2cccc(F)c2)OCCCC[C@H](C)Oc2ccc(NC(=O)C3CCCCC3)cc2C1=O	inactive
C[C@H](CO)N1C[C@H](C)[C@@H](CN(C)C(=O)Nc2cccc3ccccc23)OCCCC[C@H](C)Oc2ccc(NC(=O)C3CCCCC3)cc2C1=O	inactive
C[C@@H]1CN([C@@H](C)CO)C(=O)c2cc(NC(=O)C3CCCCC3)ccc2O[C@@H](C)CCCCO[C@@H]1CN(C)C(=O)Nc1cccc2ccccc12	inactive
C[C@H](CO)N1C[C@H](C)[C@H](CN(C)C(=O)Nc2ccc3ccccc3c2)OCCCC[C@H](C)Oc2ccc(NC(=O)C3CCCCC3)cc2C1=O	inactive
C[C@H]1CCCCO[C@@H](CN(C)C(=O)Nc2cccc3ccccc23)[C@@H](C)CN([C@@H](C)CO)C(=O)c2cc(NC(=O)C3CCCCC3)ccc2O1	inactive
C[C@@H]1CN([C@H](C)CO)C(=O)c2cc(NC(=O)C3CCCCC3)ccc2O[C@@H](C)CCCCO[C@H]1CN(C)C(=O)Nc1cccc2ccccc12	inactive
